The source of these data is US7192906B2, “Substituted pyrazole derivatives, production process thereof, and herbicide compositions containing the derivatives” (SDS Biotech K.K., priority 2001, dated 2007).

What all share (type): in vivo
Series [1] relates to Chenopodium album. Description: Test Example 1 upland field foliage treatment. The note with it: Table 4, upland field foliage treatment, index 0-5. An outline of the steps: (§1)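 Post-emergence foliar spray, 1 kg a.i./ha, wettable powder diluted in water, applied 14 d after sowing in upland soil. Rating 21 d post-application, 0–5 scale: 5 ≥90%, 4 70–<90%, 3 50–<70%, 2 30–<50%, 1 10–<30%, 0 <10% effect or injury.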

In series [2] the test system is Digitaria adscendens. As to the kind of experiment: Test Example 1 upland field foliage treatment. The note with it: Table 4, upland field foliage treatment, index 0-5. The procedure, abridged: as §1
For series [3], the system named is Setaria viridis. As to the kind of experiment: Test Example 1 upland field foliage treatment. The note with it: Table 4, upland field foliage treatment, index 0-5. The procedure, abridged:
as §1

Series [4] deals with Stellaria media. Description: Test Example 1 upland field foliage treatment. The note with it: Table 4, upland field foliage treatment, index 0-5. The procedure, abridged:
as §1

For series [5], the system named is soybean (Glycine max). As to the kind of experiment: Test Example 1 upland field foliage treatment, crop phytotoxicity. The note with it: Table 4, upland field foliage treatment, index 0-5. An outline of the steps: as §1
Series [6] has as its system wheat (Triticum aestivum). Described as above. The note with it: Table 4, upland field foliage treatment, index 0-5. The procedure, abridged: as §1
Series [7] concerns Chenopodium album. Description: Test Example 2 upland soil treatment. The note with it: Table 5, upland soil treatment, index 0-5. The procedure, abridged:
(§2)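 Seeds are sown into upland soil and covered by roughly 1 cm of soil, then the compound, formulated as a wettable powder and diluted with water, is applied uniformly to the soil surface the following day at 1 kg active ingredient per hectare. Herbicidal effect or phytotoxicity is graded 0 to 5 after 21 days.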

The test system of series [8] is Digitaria adscendens. Description: Test Example 2 upland soil treatment. The note with it: Table 5, upland soil treatment, index 0-5. An outline of the steps:
as §2

For series [9], the system named is Setaria viridis. As to the kind of experiment: Test Example 2 upland soil treatment. The note with it: Table 5, upland soil treatment, index 0-5. The procedure, abridged:
as §2

In series [10] the test system is Stellaria media. As to the kind of experiment: Test Example 2 upland soil treatment. The note with it: Table 5, upland soil treatment, index 0-5. The procedure, abridged: as §2
For series [11], the system named is soybean (Glycine max). Description: Test Example 2 upland soil treatment, crop phytotoxicity. The note with it: Table 5, upland soil treatment, index 0-5. The procedure, abridged:
as §2

Series [12] has as its system wheat (Triticum aestivum). Described as above. The note with it: Table 5, upland soil treatment, index 0-5. An outline of the steps: as §2
The test system of series [13] is Ammannia multiflora. Description: Test Example 3 paddy field treatment. The note with it: active ingredient 1 kg per hectare, index 0-5. The procedure, abridged:
(§3)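 Scoring used a 0–5 scale of herbicidal effect or phytotoxicity, from <10% to ≥90%, taken 21 days after treatment. Treatment was 1 kg a.i./ha as diluted wettable powder dripped onto 4 cm-deep flooded pots sown with the weeds, 10 days after transplanting two-leaf Koshihikari rice.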

Series [14] has as its system Echinochloa crusgalli. Description: Test Example 3 paddy field treatment. The note with it: active ingredient 1 kg per hectare, index 0-5. An outline of the steps:
as §3

In series [15] the test system is Monochoria vaginalis. As to the kind of experiment: Test Example 3 paddy field treatment. The note with it: active ingredient 1 kg per hectare, index 0-5. An outline of the steps:
as §3

In series [16] the test system is Scirpus juncoides. Description: Test Example 3 paddy field treatment. The note with it: active ingredient 1 kg per hectare, index 0-5. The procedure, abridged: as §3
Series [17] deals with Rice (Oryza sativa). As to the kind of experiment: Test Example 3 paddy field treatment, crop phytotoxicity. The note with it: active ingredient 1 kg per hectare, index 0-5; for Herbicidal activity (phytotoxicity) OS: Table 6, paddy field treatment, transplanted rice, 21st day after dropping. The procedure, abridged: as §3
Setting [18] is: paddy field treatment, wettable powder, 21st day after the dropping.
[19] abbreviates: Table 6, paddy field treatment, 21st day after dropping.

As to `CNC(=O)C(Cn1cc(Cl)c(-c2ccccc2)n1)=NOC` [Compound 14], the “Herbicidal activity CA: Chenopodium album” value (from here on “Herbicidal activity CA”) in series [1] is 5 (herbicidal effect of not less than 90%, or phytotoxicity of 90% or more); in series [7], 5 (herbicidal effect of not less than 90%, or phytotoxicity of 90% or more). For the same compound, the “Herbicidal activity DA: Digitaria adscendens” value (“Herbicidal activity DA” for short) is listed as 5 (herbicidal effect of not less than 90%, or phytotoxicity of 90% or more) in series [2] and 5 (herbicidal effect of not less than 90%, or phytotoxicity of 90% or more) in series [8]. Further, the “Herbicidal activity SV: Setaria viridis” value is listed as 5 (herbicidal effect of not less than 90%, or phytotoxicity of 90% or more) in series [3] and 5 (herbicidal effect of not less than 90%, or phytotoxicity of 90% or more) in series [9]. For the same compound, the “Herbicidal activity SM: Stellaria media” value in [4] is given as 5 (herbicidal effect of not less than 90%, or phytotoxicity of 90% or more); in series [10] it was 5 (herbicidal effect of not less than 90%, or phytotoxicity of 90% or more). Also, the “Herbicidal activity (phytotoxicity) GM: Soybean (Glycine max)” value (shortened to “Herbicidal activity (phytotoxicity) GM”) in series [5] is 0 (herbicidal effect of not less than 0% and less than 10%, or phytotoxicity of 0% or more and less than 10%); in series [11] it was 1 (herbicidal effect of not less than 10% and less than 30%, or phytotoxicity of 10% or more and less than 30%). Moreover, the “Herbicidal activity (phytotoxicity) TA: Wheat (Triticum aestivum)” value (from here on “Herbicidal activity (phytotoxicity) TA”) in series [6] was 0 (herbicidal effect of not less than 0% and less than 10%, or phytotoxicity of 0% or more and less than 10%); in series [12], 0 (herbicidal effect of not less than 0% and less than 10%, or phytotoxicity of 0% or more and less than 10%). Besides, in series [13] (setting [18]), the “Herbicidal activity AM” value is 5 (herbicidal effect of not less than 90%, or phytotoxicity of 90% or more). Further, in [14] (setting [18]), the “Herbicidal activity EC” value was 5 (herbicidal effect of not less than 90%, or phytotoxicity of 90% or more). Besides, the “Herbicidal activity MV” value in [15] (setting [18]) was 5 (herbicidal effect of not less than 90%, or phytotoxicity of 90% or more). Also, the “Herbicidal activity SJ” value in series [16] (setting [18]) is 5 (herbicidal effect of not less than 90%, or phytotoxicity of 90% or more). For the same compound, the “Herbicidal activity OS (phytotoxicity to rice)” value in series [17] (paddy field treatment, transplanted rice Koshihikari, wettable powder, 21st day after the dropping) was 1 (herbicidal effect of not less than 10% and less than 30%, or phytotoxicity of 10% or more and less than 30%).

For `CNC(=O)C(Cn1cc(C)c(-c2ccc(OC(F)F)cc2)n1)=NOC` [Compound 65], the “Herbicidal activity CA” value was 5 (herbicidal effect of not less than 90%, or phytotoxicity of 90% or more) in [1] and 5 (herbicidal effect of not less than 90%, or phytotoxicity of 90% or more) in series [7]. Further, the “Herbicidal activity DA” value in series [2] was 5 (herbicidal effect of not less than 90%, or phytotoxicity of 90% or more); in series [8] it was 5 (herbicidal effect of not less than 90%, or phytotoxicity of 90% or more). Further, the “Herbicidal activity SV: Setaria viridis” value in [3] is given as 5 (herbicidal effect of not less than 90%, or phytotoxicity of 90% or more); in series [9], 5 (herbicidal effect of not less than 90%, or phytotoxicity of 90% or more). For the same compound, the “Herbicidal activity SM: Stellaria media” value in [4] was 5 (herbicidal effect of not less than 90%, or phytotoxicity of 90% or more); in series [10] it was 5 (herbicidal effect of not less than 90%, or phytotoxicity of 90% or more). The “Herbicidal activity (phytotoxicity) GM” value in series [5] is 0 (herbicidal effect of not less than 0% and less than 10%, or phytotoxicity of 0% or more and less than 10%); in series [11] it was 0 (herbicidal effect of not less than 0% and less than 10%, or phytotoxicity of 0% or more and less than 10%). The “Herbicidal activity (phytotoxicity) TA” value in series [6] is 0 (herbicidal effect of not less than 0% and less than 10%, or phytotoxicity of 0% or more and less than 10%); in series [12], 0 (herbicidal effect of not less than 0% and less than 10%, or phytotoxicity of 0% or more and less than 10%). Moreover, the “Herbicidal activity AM” value in series [13] (setting [19]) is 5 (herbicidal effect of not less than 90%, or phytotoxicity of 90% or more). Also, the “Herbicidal activity EC” value in series [14] (setting [19]) is recorded as 5 (herbicidal effect of not less than 90%, or phytotoxicity of 90% or more). The “Herbicidal activity MV” value in series [15] (setting [19]) was 5 (herbicidal effect of not less than 90%, or phytotoxicity of 90% or more). Also, the “Herbicidal activity SJ” value in series [16] (setting [19]) is given as 5 (herbicidal effect of not less than 90%, or phytotoxicity of 90% or more). In addition, in series [17], the “Herbicidal activity (phytotoxicity) OS” value was 0 (herbicidal effect of not less than 0% and less than 10%, or phytotoxicity of 0% or more and less than 10%).

As for `CON=C(Cn1cc(C)c(-c2ccccc2)n1)C(=O)N1CCSCC1` [Compound 122], the “Herbicidal activity CA” value in series [1] is 4 (herbicidal effect of not less than 70% and less than 90%, or phytotoxicity of 70% or more and less than 90%); in series [7], 4 (herbicidal effect of not less than 70% and less than 90%, or phytotoxicity of 70% or more and less than 90%). The “Herbicidal activity DA” value in series [2] was 4 (herbicidal effect of not less than 70% and less than 90%, or phytotoxicity of 70% or more and less than 90%); in [8] it was 3 (herbicidal effect of not less than 50% and less than 70%, or phytotoxicity of 50% or more and less than 70%). Also, the “Herbicidal activity SV: Setaria viridis” value in series [3] was 4 (herbicidal effect of not less than 70% and less than 90%, or phytotoxicity of 70% or more and less than 90%); in series [9] it was 3 (herbicidal effect of not less than 50% and less than 70%, or phytotoxicity of 50% or more and less than 70%). The “Herbicidal activity SM: Stellaria media” value in [4] was 4 (herbicidal effect of not less than 70% and less than 90%, or phytotoxicity of 70% or more and less than 90%); in [10] it was 4 (herbicidal effect of not less than 70% and less than 90%, or phytotoxicity of 70% or more and less than 90%). The “Herbicidal activity (phytotoxicity) GM” value in [5] was 0 (herbicidal effect of not less than 0% and less than 10%, or phytotoxicity of 0% or more and less than 10%); in series [11], 0 (herbicidal effect of not less than 0% and less than 10%, or phytotoxicity of 0% or more and less than 10%). The “Herbicidal activity (phytotoxicity) TA” value in series [6] is 0 (herbicidal effect of not less than 0% and less than 10%, or phytotoxicity of 0% or more and less than 10%); in [12] it was 0 (herbicidal effect of not less than 0% and less than 10%, or phytotoxicity of 0% or more and less than 10%). In addition, in [13] (setting [19]), the “Herbicidal activity AM” value was 4 (herbicidal effect of not less than 70% and less than 90%, or phytotoxicity of 70% or more and less than 90%). Also, the “Herbicidal activity EC” value in series [14] (setting [19]) was 4 (herbicidal effect of not less than 70% and less than 90%, or phytotoxicity of 70% or more and less than 90%). In series [15] (setting [19]), the “Herbicidal activity MV” value was 4 (herbicidal effect of not less than 70% and less than 90%, or phytotoxicity of 70% or more and less than 90%). In addition, the “Herbicidal activity SJ” value in [16] (setting [19]) was 3 (herbicidal effect of not less than 50% and less than 70%, or phytotoxicity of 50% or more and less than 70%). Besides, the “Herbicidal activity (phytotoxicity) OS” value in series [17] is 0 (herbicidal effect of not less than 0% and less than 10%, or phytotoxicity of 0% or more and less than 10%).
